From patent US10722484B2, “Methods of cancer treatment” (K-Gen, Inc., priority 2016, dated 2020)
Read-outs that look alike come from different tables or passages of the source.

Tests used:
[1] = system: pancreatic, lung, colon and leukemia cancer cell lines; test: Proliferation assay, summary over the panel of cancer cell lines; format: cell-based; details: comparison with prostratin
Experimental: PKC activator compounds were tested in a panel of K-RAS mutant pancreatic, lung, and colon cancer cell lines, as well as a number of leukemia cell lines having either mutant K-RAS or N-RAS.
(§1) The dose range for most compounds was 4.6 nM-30 μM. The dose ranges for some compounds were adjusted downward to 0.46 nM-3 μM or 0.08 nM-0.5 μM or 0.03 nM-0.2 μM. […] The results are shown in Tables 3-6 for pancreatic cancer, lung cancer, colon/gastric cancer, and leukemia.

[2] = system: Mino (Mantle cell lymphoma); test: Combination viability/proliferation assays; details: Homo sapiens, MINO, read-out: inhibition on proliferation, alone
Experimental: Briefly, cells at density of 1,000-10,000 cells/well in 96-well plates or 200-1600 cells/well in 384-well plates were seeded and incubated at 37° C. for 24 hours before addition of compounds. A series of 9 different concentrations of compound stocks (500×) were prepared by 3-fold serial dilutions in DMSO. […] After 96 hours of incubation, 35 μL or 50 μL of CellTiter Glo reagent (Promega) was added to each well and luminescence was measured after 10 minutes using EnVision (PerkinElmer). Luminescence from cells treated with DMSO alone was set as Max and % of inhibition was calculated as follows: Inhibition %=(Max-Sample value)/Max*100. Data were analyzed using XLfit software (ID Business Solutions Ltd.) or GraphPad software and IC50, relative IC50, and % of top inhibition were calculated.
Various drugs or compounds (Table 10) were screened and assayed in 384-well plates as 9-point 3-fold dilution series alone and in combination with 2-3 doses of the specified PKC activator compounds (e.g., K101A, K101E, and K102). The top concentration for the tested PKC activator compound was set at roughly the IC50 when the same testing compound was used as a single agent assayed in the same cell line. The next dose was either 3-fold or 10-fold dilution from the top concentration.
The PKC activating agents (e.g., K101A, K101E, and K102) in combination with other chemotherapeutic agents, including standard chemotherapies and certain chemotherapeutic agents targeting certain cell signaling pathways, were also examined on cancer cells other than lung cancer cells.

SW900 = test: Proliferation assay (CellTiter Glo); format: cell-based; details: SW900 (K-RAS: G12V); 96 hours
RPMI8226 = test: Proliferation assay (CellTiter Glo); format: cell-based; details: RPM18226; 96 hours
BxPC-3 = test: Proliferation assay (CellTiter Glo); format: cell-based; details: BxPC-3 (RAS WT); 96 hours
H838 = test: Proliferation assay (CellTiter Glo); format: cell-based; details: H838 (RAS WT); 96 hours
Colo205 = test: Proliferation assay (CellTiter Glo); format: cell-based; details: Colo205 (RAS WT); 96 hours
HT29 = test: Proliferation assay (CellTiter Glo); format: cell-based; details: HT29 (RAS WT); 96 hours
H1915 = test: Proliferation assay (CellTiter Glo); format: cell-based; details: H1915 (RAS WT); 96 hours
MiaPaCa-2 = test: Proliferation assay (CellTiter Glo); format: cell-based; details: 96 hours; for Top Inhibition %: % of top inhibition
Capan-1 = test: Proliferation assay (CellTiter Glo); format: cell-based; details: 96 hours; for Top Inhibition %: % of top inhibition
Experimental: as §1

Pan2.03 = test: Proliferation assay (CellTiter Glo); format: cell-based; details: 96 hours; for Top Inhibition %: % of top inhibition
Experimental: as §1

AGS = test: Proliferation assay (CellTiter Glo); format: cell-based; details: 96 hours; for Top Inhibition %: % of top inhibition
Experimental: as §1

[3] = system: A549 lung cancer cell line; test: Combination viability/proliferation assays (384-well IC50 ratio, 96-well MacSynergy II); format: cell-based; details: PKC activator compounds (K101A, K101E, K102)
[4] = Homo sapiens, MIA PaCa-2, MiaPaCa-2 (K-RAS: G12C), absolute EC50, read-out: Ab EC50
[5] = Homo sapiens, MIA PaCa-2, MiaPaCa-2, relative EC50, read-out: Re EC50
[6] = Homo sapiens, Capan-1 (K-RAS: G12V), absolute EC50, read-out: Ab EC50
[7] = Homo sapiens, Capan-1, relative EC50, read-out: Re EC50
[8] = Pan2.03 (K-RAS: G12D), absolute EC50, read-out: Ab EC50
[9] = Pan2.03, relative EC50, read-out: Re EC50
[10] = Homo sapiens, AGS (gastric, K-RAS: G12D), absolute EC50, read-out: Ab EC50
[11] = Homo sapiens, AGS, relative EC50, read-out: Re EC50

Structure (SMILES) | potency in proliferation inhibition relative to prostratin [1] | Top Inhibition % (SW900) [%] | Top Inhibition % (RPMI8226) [%] | Top Inhibition % (BxPC-3) [%] | Top Inhibition % (H838) [%] | Top Inhibition % (Colo205) [%] | Top Inhibition % (HT29) [%] | Top Inhibition % (H1915) [%] | EC50 (MiaPaCa-2; [4]) [nM] | EC50 (MiaPaCa-2; [5]) [nM] | Top Inhibition % (MiaPaCa-2; MiaPaCa-2) [%] | Top Inhibition % (Capan-1; Capan-1) [%] | EC50 (Capan-1; [6]) [nM] | EC50 (Capan-1; [7]) [nM] | EC50 (Pan2.03; [8]) [nM] | Top Inhibition % (Pan2.03; Pan2.03) [%] | EC50 (Pan2.03; [9]) [nM] | Top Inhibition % (AGS; AGS) [%] | EC50 (AGS; [10]) [nM] | EC50 (AGS; [11]) [nM] | other results
C/C=C(/C)C(=O)O[C@H]1C(C)=C[C@]23C(=O)[C@@H](C=C(CO)[C@@H](O)[C@]12O)[C@H]1[C@@H](C[C@H]3C)C1(C)C [Compound K102, ingenol-3-angelate] | more potent | 20.1 | 27.06 | 44.13 | 25.5 | 86.0 | 17.3 | 30.8 | 13 | 9 | 79.3 | 46.9 | > 30000 | 13 | > 3000 | 36.9 | 3.3 | 42.9 | > 3000 | 12 | inhibition at 0.001 µM [2]: < 10%
CCCCCCCCCCCCCC(=O)O[C@@H]1[C@@H](C)[C@@]2(O)[C@@H](C=C(CO)C[C@]3(O)C(=O)C(C)=C[C@@H]23)[C@@H]2C(C)(C)[C@]12OC(C)=O [Compound K103, 12-O-Tetradecanoylphorbol-13-acetate] | more potent | 18.7 | 32.75 | 44.46 | 15.5 | 86.8 | 20.9 | 27.9 | 0.28 | 0.24 | 81.1 | 51.0 | 14 |  | > 500 | 32.2 | 0.9 | 47.2 | > 500 | 1.1 | 
CC(=O)O[C@@]12C[C@@H](C)[C@@]3(O)[C@@H](C=C(CO)C[C@]4(O)C(=O)C(C)=C[C@@H]34)[C@@H]1C2(C)C [Compound K101A, 12-deoxyphorbol 13-acetate] |  | 7.1 | 32.39 | 40.11 | 10.1 | 83.6 | 12.8 | 27.7 | 300 | 180 | 74.4 | 37.1 | > 30000 | 310 | > 30000 | 27.0 | 120 | 21.7 | > 30000 | 490 | inhibition at 0.1 µM [2]: < 10%
CC(=O)OCC1=CC2C3C(C)(C)C3(OC(C)=O)CC(C)C2(O)C2C=C(C)C(=O)C2(O)C1 (centres unmarked) [Compound K101E] |  | 25.4 | 32.25 | 38.87 | 26.8 | 85.8 | 31.7 | 35.6 |  |  | 61.4 | 44.6 |  |  | > 30000 | 36.5 | 1920 | 25.9 |  |  | EC50 (MiaPaCa-2; MiaPaCa-2 (K-RAS: G12C), absolute EC50, read-out: Ab EC50): 1880 nM; EC50 (MiaPaCa-2; MiaPaCa-2, relative EC50, read-out: Re EC50): 860 nM; EC50 (Capan-1; Capan-1 (K-RAS: G12V), absolute EC50, read-out: Ab EC50): > 30000 nM; EC50 (Capan-1; Capan-1, relative EC50, read-out: Re EC50): 830 nM; EC50 (AGS; AGS (gastric, K-RAS: G12D), absolute EC50, read-out: Ab EC50): > 30000 nM; EC50 (AGS; AGS, relative EC50, read-out: Re EC50): 4380 nM
CC(=O)O[C@H]1C(=O)[C@@]2(C)[C@H]([C@H](OC(=O)c3ccccc3)[C@]3(O)C[C@H](OC(=O)[C@H](O)[C@@H](NC(=O)c4ccccc4)c4ccccc4)C(C)=C1C3(C)C)[C@]1(OC(C)=O)CO[C@@H]1C[C@@H]2O [Paclitaxel] |  | 81.0 | 98.98 | 91.93 | 96.5 | 97.4 | 93.8 | 80.6 | 3.4 | 3.3 |  | 73.5 | 11 | 7.2 | 3.3 | 64.7 | 1.8 | 87.7 | 4.7 | 3.9 | effect in combination with the PKC activator compounds in inhibiting the growth of A549 cells [3]: insignificant synergism or antagonism
